For series [1], the system named is HCT116-luc2 tumors. Description: BRS-680 fluorescence imaging (FLI) of tumor bombesin receptor expression. The following applies: for inhibition of BRS-680 tumor FLI signal: sorafenib 40 mg/kg daily oral gavage. It counts as in vivo, nu/nu mice. The protocol: In addition, the imager is equipped with suitable excitation and emission filter sets for FLI of BRS-680 and TfV-750. Tumor metabolic activities were visualized by IV injection of a mixture of these two NIR imaging agents (2 nmol/mouse each in a total volume of 100 μl of PBS). The agents were injected 16 h prior to FLI imaging in order to allow optimal probe uptake and clearance of unbound probe. For the longitudinal FLI imaging studies, separate cohorts were used for FLI acquisitions on days 1 (n = 10, imaging agents injected on day 0), 2 (n = 10, injected on day 1), and 3 (n = 5, injected on day 2) due to the extended time required for probe washout. […] Fluorescent signal is represented as radiant efficiency [(p/sec/cm^2/sr)/(μW/cm^2)] or normalized fluorescent signal where appropriate.
(§1) BLI and FLI images were analyzed using the Living Image software (version 4.4 for Windows, PerkinElmer Inc.). Tumor BLI and FLI signals were quantified using the region of interest (ROI) tools, and the total optical signals were calculated as total flux (photon counts/sec) and total radiant efficiency [(p/s)/(μW/cm^2)], respectively. For greater accuracy, all FLI data was corrected for background levels based on specific measurements as described in the figure legends. All PET images were represented as standard uptake value (SUV) using the VivoQuant 3.0 software and tumor-specific ^18F-FDG uptake levels were also calculated using SUVtotal. Several similar imaging experiments were performed using this particular HCT116-luc2 tumor model to visualize treatment responses to sorafenib. […] For each treatment group, we calculated relative tracer uptake in tumors using the day 0 uptake level as 100%. For statistical analysis, we used the GraphPad Prism software (version 6.0 for Windows, La Jolla, CA). Data are presented as the mean ± standard error of the mean (s.e.m.). Statistical analysis was conducted using ANOVA or Student’s t-test, as indicated. P < 0.05 was the cutoff for being considered statistically significant.
Besides interfering with glycolytic activity, we believe inhibition of the Ras/Raf/MEK/ERK pathways with sorafenib has a broader, global impact on tumor energy metabolism. […] We wonder if these FLI probes can detect early, yet subtle metabolic disturbances induced by sorafenib treatment prior to the later regression of treated tumors, like we saw with ^18F-FDG PET imaging. […] Separate cohorts were used for FLI acquisitions on days 1, 2, and 3 due to the extended time required for probe washout. Of note, the day 1 cohort was re-injected with probe for imaging on day 10 to assess ultimate treatment efficacy. […]

Series [2] has as its system HCT116-luc2 tumors. Nature of the series: 18F-FDG microPET imaging of tumor glucose uptake. The format is in vivo, nu/nu mice. The following applies: sorafenib 40 mg/kg daily oral gavage; days 2 and 3 post-treatment; n = 5 per group. The protocol: We also performed microPET imaging using ^18F-FDG as a tracer for detecting changes in tumor glucose uptake with or without treatment. Images were acquired using the G8 PET/CT system (PerkinElmer Inc.). For each mouse, 100 μCi of ^18F-FDG (PETNET Solutions Inc., Malvern PA) was injected intravenously (IV), and all mice were kept warm and maintained under 1.5% isoflurane gas anesthesia for 1 hour for tracer uptake. Subsequently, the mice were imaged with a standard 10 min static F-18 imaging protocol. The G8 PET/CT system automatically performed image reconstruction after acquisition and provided 3D tomography imaging in the DICOM format. We were able to image the same cohorts (n = 5) throughout the course of study since ^18F has a relative short decay half-life (~110 min). […]
(§2) BLI and FLI images were analyzed using the Living Image software (version 4.4 for Windows, PerkinElmer Inc.). Tumor BLI and FLI signals were quantified using the region of interest (ROI) tools, and the total optical signals were calculated as total flux (photon counts/sec) and total radiant efficiency [(p/s)/(μW/cm^2)], respectively. […] All PET images were represented as standard uptake value (SUV) using the VivoQuant 3.0 software and tumor-specific ^18F-FDG uptake levels were also calculated using SUVtotal. […] For each treatment group, we calculated relative tracer uptake in tumors using the day 0 uptake level as 100%. […]

Series [3] has as its system HCT116-luc2 tumors. Nature of the series: H&E histology of tumor tissue sections. The format is in vivo, nu/nu mice. The following applies: sorafenib 120 mg/kg, days 0-4 and 7-9; day 9. How it is done:
Tumor tissues were fixed in 10% neutral buffered formalin, followed by routine process and embedment in paraffin. Tissue sections (5 μm) were prepared on electrostatically charged glass slides and then baked at 60°C overnight. After washing the slides with three washes in xylene, the slides were rehydrated through a series of graded ethanol (100%, 90% and 70%) to water. The prepared slides were then stained with hematoxylin and eosin.
Fig 1 Sorafenib, a tyrosine kinase inhibitor, effectively suppresses HCT116-luc2 tumor growth. Nude mice bearing subcutaneous tumors on the flanks were treated with vehicle or with 120 mg/kg of sorafenib on days 0–4 and days 7–9 via oral gavage. A: Longitudinal tumor volume measurements of subcutaneous HCT116-luc2 tumors (***p < 0.0001, n = 5 per group, two-way ANOVA, mean and s.e.m., representative of three studies) B: H&E staining of tumor tissue sections harvested from the vehicle and sorafenib-treated (120 mg/kg) tumors on day 9. […] Bar: 50 μm.

In series [4] the test system is HCT116-luc2 tumors. Description: BLI of firefly luciferase activity (tumor viability) in HCT116-luc2 xenografts. It counts as in vivo, nu/nu mice. The protocol:
Optical BLI and FLI were performed using the IVIS® SpectrumCT, which is capable of imaging multiple mice simultaneously (up to 5 mice). To generate BLI signals, the tumor-bearing mice received IP injections of 75 mg/kg of D-luciferin (potassium salt, PerkinElmer Inc.) and were placed into the imager for sequential image acquisitions (settings: FOV = D, Binning = 16, F/Stop = 1, Open filter, 2 min delay between each acquisition) under 1–2% of isoflurane anesthesia. Maximal bioluminescence output for each tumor was determined by sequentially acquiring a BLI image every two minutes for up to 16 min. Typical peak imaging time for the HCT116-luc2 subcutaneous model was approximately 10 min, and BLI images are represented in units of radiance (p/sec/cm^2/sr).
as §1, with “SUVtotal.” for “SUVtotal. Several similar imaging experiments were performed using this particular HCT116-luc2 tumor model to visualize treatment responses to sorafenib.”

Series [5] relates to HCT116-luc2 tumors. Nature of the series: TfV-750 fluorescence imaging (FLI) of tumor transferrin receptor expression. The format is in vivo, nu/nu mice. The protocol: In addition, the imager is equipped with suitable excitation and emission filter sets for FLI of BRS-680 and TfV-750. Tumor metabolic activities were visualized by IV injection of a mixture of these two NIR imaging agents (2 nmol/mouse each in a total volume of 100 μl of PBS). The agents were injected 16 h prior to FLI imaging in order to allow optimal probe uptake and clearance of unbound probe. For the longitudinal FLI imaging studies, separate cohorts were used for FLI acquisitions on days 1 (n = 10, imaging agents injected on day 0), 2 (n = 10, injected on day 1), and 3 (n = 5, injected on day 2) due to the extended time required for probe washout. […]
as §2

The subject of series [6] is HCT116-luc2 subcutaneous xenografts. Description: Caliper tumor volume measurement of subcutaneous HCT116-luc2 xenografts.
Protocol: Specific pathogen-free nu/nu (Crl:NU-Fox1^nu, 6–8 weeks old) and CD-1 (Crl:CD1[ICR]) mice were purchased from Charles River Laboratories (Wilmington, MA). Mice were housed in a controlled environment (72°F; 12:12-h light-dark cycle) under specific-pathogen free conditions with water and food provided ad libitum. To induce tumor growth, 2.5 x10^6 of HCT116-luc2 cells were subcutaneously injected on the right flank of a nude mouse. Two weeks after cancer cell inoculation, when the tumor volume reached an appropriate size (measured by caliper and calculated by the formula 0.5 x length x width^2), animals were randomized into vehicle or different sorafenib treatment groups as indicated. Sorafenib was prepared in water containing 6.2% of ethanol and 6.2% of Kolliphor EL (Sigma-Aldrich, St. Louis, MO). The treatment was given daily 5 times a week by oral gavage at 15 μl per gram of body weight.
We initiated the treatment when the average HCT116-luc2 tumor size for each group reached ~180 mm^3 in volume (day 0). The drug was given daily via oral gavage at a dosage of 120 mg/kg from days 0 to 4 and from days 7 to 9.
In this set of studies (Fig 2), treatments were initiated when the average group HCT116-luc2 tumor size reached ~100 mm^3 in volume. […] The drug was given daily, from days 0 to 4 and from days 7 to 11. In addition to the conventional tumor volume measurements by caliper, we performed BLI of firefly luciferase activity to access tumor viability on the days indicated.
For a further series, the system named is HT-29 tumors. Description: Biodistribution and in vivo imaging kinetics of the probes in HT-29 tumor-bearing mice. Set-up: species or system nu/nu mice. How it is done: (§3) Selectivity was assessed in vitro using HT-29 human colorectal cells; fluorescence signal on BRS-680-labeled cells was ~7X greater than either the scrambled peptide version of the probe or when 100X unlabeled bombesin peptide was used to block labeling (S2 Fig) as assessed by both flow cytometry and fluorescence microscopy. […] Tumor tissue localization co-localized well with ex vivo anti-bombesin receptor staining (S5 Fig).
Selectivity was assessed in vitro by flow cytometry and fluorescence microscopy using HT-29 human colorectal cells; fluorescence signal on TfV-750-labeled cells was ~15X greater than when 100 μM unlabeled recombinant transferrin was used to block labeling (S7 Fig). […] Animals were bled at indicated times, and plasma fluorescence was determined using a microplate assay. […] The probe has good tissue penetration into tumors, as its binding pattern in tumor sections (using a 645 nm FLI surrogate to improve microscopy imaging) correlates well with the transferrin receptor expression on cancer cells and is not associated with the tumor vasculature (S10 Fig).
Blood samples were obtained via terminal cardiac puncture and plasma fluorescence was quantified on a fluorescence plate reader. […] Mice were sacrificed 24 hours post-injection and tissues were excised, rinsed with PBS, and imaged on the FMT 4000 (PerkinElmer, Waltham, MA), in epifluorescence mode. Epifluorescence levels were determined using TrueQuant™ FMT software and are represented as Mean Fluorescence to compensate for differences in tissue size. (TIF) Click here for additional data file.
Noninvasive fluorescence tomographic imaging datasets were used to quantify kinetic fluorescence changes in the tumors, heart, and liver. An optimal imaging time point of 24h was determined based on specificity of tumor signal and tumor’s signal-to-background ratio. (TIF) Click here for additional data file.
B: Quantification of tissue epifluorescence images, with data inset representing plasma pharmacokinetics assessed from serial bleeds of mice measured on a microplate fluorimeter. (TIF) Click here for additional data file.
Elevated TfV-750 signals in the liver and tumor indicate higher iron metabolism in these tissues. (TIF) Click here for additional data file.

Series [7] can be described thus: Plasma pharmacokinetics of the probes, fluorescence microplate assay. The format is in vivo. The following applies: CD-1 mice; 2 nmoles IV; plasma fluorescence on a microplate reader. The protocol: as §3
Selectivity was assessed in vitro by flow cytometry and fluorescence microscopy using HT-29 human colorectal cells; fluorescence signal on TfV-750-labeled cells was ~15X greater than when 100 μM unlabeled recombinant transferrin was used to block labeling (S7 Fig). […] Animals were bled at indicated times, and plasma fluorescence was determined using a microplate assay. […]
Blood samples were obtained via terminal cardiac puncture and plasma fluorescence was quantified on a fluorescence plate reader. […] Epifluorescence levels were determined using TrueQuant™ FMT software and are represented as Mean Fluorescence to compensate for differences in tissue size. […]
B: Quantification of tissue epifluorescence images, with data inset representing plasma pharmacokinetics assessed from serial bleeds of mice measured on a microplate fluorimeter. […]

Setting [8] is: sorafenib 120 mg/kg daily for 8 days, imaged day 9, stated for both FLI probes.
Where [9] appears, read: sorafenib 40 mg/kg, first 3 days of treatment.
The mark [10] stands for this setting: sorafenib 40 mg/kg, within 2 days of treatment, n = 5 per group.
[11] abbreviates: HT-29 tumor-bearing mice, 2 nmol/mouse IV.
[12] abbreviates: HT-29 tumor-bearing nu/nu mice, 2 nmol IV, tissues excised 24 h post-injection, epifluorescence.

These results are taken from article PMC5549732 (PLoS ONE, 2017).

Values joined by “and” are separate entries in the source; they are usually repeats but may differ in a detail not shown here. Equal entries are not always repeated.

`CNC(=O)c1cc(Oc2ccc(NC(=O)Nc3ccc(Cl)c(C(F)(F)F)c3)cc2)ccn1` [sorafenib, Sorafenib]: the “inhibition of BRS-680 tumor FLI signal” value was determined as 40% in the series with HCT116-luc2 tumors [1] (day 2, n = 10) and 79% with HCT116-luc2 tumors [1] (day 3, n = 5). Also, the “inhibition of BRS-680 tumor signal” value with HCT116-luc2 tumors [1] (sorafenib 40 mg/kg, within the 2-3 day window, normalized to vehicle control) was 40–80%. Also, the “reduction in BRS-680 FLI signal as compared to controls” value in the series with HCT116-luc2 tumors [1] (setting [8]) is recorded as at least 40%. Moreover, in the series with HCT116-luc2 tumors [2], the “inhibition of tumor uptake of 18F-FDG” value was 55–60% and 50–60%. In the series on HCT116-luc2 tumors [3], the “tumor death in H&E stained tumor tissue sections” value is “extensive tumor death”. In addition, the “reduction in BLI signal” value in the series with HCT116-luc2 tumors [4] (setting [9]) is reported as “no significant reduction”. Besides, the “reduction in viability (assessed by BLI)” value in the series on HCT116-luc2 tumors [4] (setting [10]) is reported as “no significant reduction”. Also, the “BLI and tumor volume results compared with the 120 mg/kg dose” value with HCT116-luc2 tumors [4] (sorafenib 80 mg/kg daily, days 0-4 and 7-11) is listed as “Comparable results”. Besides, the “suppression of tumor viability (BLI)” value in the series with HCT116-luc2 tumors [4] (sorafenib 120 mg/kg daily, days 0-4 and 7-11, by day 11, n = 5 per group) is ~ 90%. In the series with HCT116-luc2 tumors [4] (sorafenib 120 mg/kg, 2 days after the treatment began, n = 5 per group), the “reduction in tumor BLI signals” value is ~ 40%. Also, the “inhibition of TfV-750 tumor FLI signal” value in the series on HCT116-luc2 tumors [5] (sorafenib 40 mg/kg daily oral gavage, day 3, n = 5) was 65% and ~ 70%. Also, the “reduction in TfV-750 FLI signal as compared to controls” value in the series on HCT116-luc2 tumors [5] (setting [8]) is listed as at least 40%. The “decrease of overt tumor size” value in series [6] (sorafenib 40 mg/kg daily, by day 10, PET study cohort, n = 5 per group) was ~ 50%. In addition, the “growth inhibition in comparison with untreated control tumors” value in series [6] (sorafenib 40 mg/kg, by day 10 or 11, over multiple studies) is 50–90%. For the same molecule, in series [6] (setting [9]), the “reduction in tumor volume” value was “no significant reduction”. In addition, the “reduction in size (tumor volume)” value in series [6] (setting [10]) is on record as “no significant reduction”. The “efficacy against tumor growth by tumor volume, versus vehicle” value in series [6] (sorafenib 120 mg/kg oral gavage, days 0-4 and 7-9, n = 5 per group) was “clearly demonstrated the drug’s efficacy”. Moreover, in series [6] (sorafenib 120 mg/kg, day 2, n = 5 per group), the “change in tumor volume” value is recorded as “no significant change”.
Turning to “TfV-750: PEGylated recombinant transferrin with a NIR fluorescent reporter (ex/em 750/770 nm); transferrin receptor imaging probe”, in the series on HT-29 tumors (setting [11]), the “optimal time for in vivo tumor imaging post injection” value lay within 6 to 24 h and the “time to (near) complete clearance from the system” value was “about 4 days”. Moreover, in the series with HT-29 tumors (setting [12]), the “biodistribution to tumors in collected tissues” value is “good biodistribution to tumors” and the “route of clearance in collected tissues” value is “efficient clearance via kidney excretion”. Further, the “circulation half-life (plasma t1/2)” value in series [7] is ~ 9 h.
